Data published in patent US6642246B1 (priority 1999, dated 2003).

Target: α7 nAChR subtype (Rattus norvegicus, UniProt Q05941)
Format: binding

Chain of α7 nAChR subtype (Q05941 23-502 limits assumed): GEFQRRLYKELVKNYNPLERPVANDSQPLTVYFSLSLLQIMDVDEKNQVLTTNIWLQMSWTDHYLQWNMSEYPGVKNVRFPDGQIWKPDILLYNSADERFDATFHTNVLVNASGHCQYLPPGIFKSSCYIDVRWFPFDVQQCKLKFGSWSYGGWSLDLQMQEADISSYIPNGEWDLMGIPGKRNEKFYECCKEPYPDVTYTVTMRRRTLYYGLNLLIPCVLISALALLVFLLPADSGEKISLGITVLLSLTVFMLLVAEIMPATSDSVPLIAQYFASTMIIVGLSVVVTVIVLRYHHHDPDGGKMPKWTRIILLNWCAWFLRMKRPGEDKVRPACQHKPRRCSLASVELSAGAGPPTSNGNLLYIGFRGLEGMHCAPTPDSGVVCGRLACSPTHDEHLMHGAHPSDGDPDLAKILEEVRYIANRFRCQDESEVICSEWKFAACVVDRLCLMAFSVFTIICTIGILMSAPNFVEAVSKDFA

^125I-α-Bungarotoxin [^125I-α-BTX]
Kd: 1.67 nM
